We go through four compounds from US20070037883A1, “Therapeutic compositions” (priority 2003, published 2007).

Data set [1] has as its target T1, gp91phox-containing NADPH-oxidase in the mouse macrophage cell line J774 (Mus musculus, UniProt Q61093).
T1 construct: endogenous in cells; host or cells: J774 mouse macrophage cell line (intact cells)
T1 sequence (Q61093 2-570 limits assumed): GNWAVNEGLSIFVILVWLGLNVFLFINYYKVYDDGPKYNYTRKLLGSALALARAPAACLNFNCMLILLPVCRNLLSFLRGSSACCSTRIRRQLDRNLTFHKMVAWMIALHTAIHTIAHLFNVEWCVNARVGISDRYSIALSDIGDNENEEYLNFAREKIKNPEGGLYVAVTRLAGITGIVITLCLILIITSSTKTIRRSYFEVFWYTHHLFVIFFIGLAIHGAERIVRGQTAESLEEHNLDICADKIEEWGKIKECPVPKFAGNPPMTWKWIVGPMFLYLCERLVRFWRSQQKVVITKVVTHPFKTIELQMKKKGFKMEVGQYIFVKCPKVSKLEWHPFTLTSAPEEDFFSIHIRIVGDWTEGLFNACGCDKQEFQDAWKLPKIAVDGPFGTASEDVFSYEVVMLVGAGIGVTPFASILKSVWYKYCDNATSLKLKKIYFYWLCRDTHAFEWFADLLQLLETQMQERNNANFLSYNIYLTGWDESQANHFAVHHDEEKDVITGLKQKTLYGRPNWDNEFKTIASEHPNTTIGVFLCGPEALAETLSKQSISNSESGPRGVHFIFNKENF
T1 sequence (Q61462 1-192 partner): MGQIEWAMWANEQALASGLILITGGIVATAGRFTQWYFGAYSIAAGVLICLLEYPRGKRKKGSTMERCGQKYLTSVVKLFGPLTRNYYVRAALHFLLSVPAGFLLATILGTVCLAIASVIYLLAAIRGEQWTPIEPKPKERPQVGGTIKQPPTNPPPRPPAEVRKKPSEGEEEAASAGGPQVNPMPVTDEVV
Nature of the data set: NADPH oxidase activity in intact J774 mouse macrophages. In kind it is cell-based. The note with it: FIG. 2b.

For data set [2], the target named is endothelial nitric oxide synthase (Homo sapiens, UniProt P29474). The note with it: read-out: IC50, inhibition of endothelial nitric oxide synthase; Stuehr et al. 1991; Wang et al. 1993; cited from earlier work.
The next data set concerns Nox4 mRNA. The data set is described as follows: Nox4 mRNA expression in cultured mouse VSMCs, real-time PCR. The class given is cell-based. The note with it: 500 nmol/L oligonucleotide, 24 h, FIG. 9. Here is the method: Mouse VSMCs were plated sparsely onto 96-well ViewPlates (Packard Bioscience) (for superoxide measurements) or onto 35 mm culture dishes (for RNA extraction) such that they were 30-50% confluent at the time of transfection 24 h later. At the time of transfection, cells were washed with serum- and antibiotic free DMEM and were then incubated in serum- and antibiotic-free DMEM containing 8 μL/mL Oligofectamine Transfection Reagent (Invitrogen Life Technologies) complexed with the antisense (0-1000 nmol/L), mismatch (500 nmol/L) or scrambled (560 nmol/L) oligonucleotides. […]
RNA was extracted from cultured and freshly isolated mouse VSMCs, and from freshly isolated whole aortas using RNAwiz (Ambion) according to the manufacturer's protocol. RNA concentrations were determined spectrophotometrically by measuring absorbance at 260 nm. […]
Real-time PCR and the ΔΔCt method were used as previously described to examine mRNA expression of Nox4 and Nox1 relative to a “reference” sample. […] 18S ribosomal RNA was used as the internal standard for each reaction and was detected with commercially available rodent 18S primers and a 5′-VIC-labeled probe (PE Biosystems; Table 7).
Nox4 was amplified in duplex with 18S in PCR mixtures (25 μL final volume) containing 1× TaqMan (registered trademark). […] Reactions were performed and fluorescence monitored in the ABI Prism 7700 Sequence Detector (PE Biosystems).
A general note: In qPCR the cycle at which signal appears reflects the starting amount.

Chain of endothelial nitric oxide synthase (P29474 2-1203): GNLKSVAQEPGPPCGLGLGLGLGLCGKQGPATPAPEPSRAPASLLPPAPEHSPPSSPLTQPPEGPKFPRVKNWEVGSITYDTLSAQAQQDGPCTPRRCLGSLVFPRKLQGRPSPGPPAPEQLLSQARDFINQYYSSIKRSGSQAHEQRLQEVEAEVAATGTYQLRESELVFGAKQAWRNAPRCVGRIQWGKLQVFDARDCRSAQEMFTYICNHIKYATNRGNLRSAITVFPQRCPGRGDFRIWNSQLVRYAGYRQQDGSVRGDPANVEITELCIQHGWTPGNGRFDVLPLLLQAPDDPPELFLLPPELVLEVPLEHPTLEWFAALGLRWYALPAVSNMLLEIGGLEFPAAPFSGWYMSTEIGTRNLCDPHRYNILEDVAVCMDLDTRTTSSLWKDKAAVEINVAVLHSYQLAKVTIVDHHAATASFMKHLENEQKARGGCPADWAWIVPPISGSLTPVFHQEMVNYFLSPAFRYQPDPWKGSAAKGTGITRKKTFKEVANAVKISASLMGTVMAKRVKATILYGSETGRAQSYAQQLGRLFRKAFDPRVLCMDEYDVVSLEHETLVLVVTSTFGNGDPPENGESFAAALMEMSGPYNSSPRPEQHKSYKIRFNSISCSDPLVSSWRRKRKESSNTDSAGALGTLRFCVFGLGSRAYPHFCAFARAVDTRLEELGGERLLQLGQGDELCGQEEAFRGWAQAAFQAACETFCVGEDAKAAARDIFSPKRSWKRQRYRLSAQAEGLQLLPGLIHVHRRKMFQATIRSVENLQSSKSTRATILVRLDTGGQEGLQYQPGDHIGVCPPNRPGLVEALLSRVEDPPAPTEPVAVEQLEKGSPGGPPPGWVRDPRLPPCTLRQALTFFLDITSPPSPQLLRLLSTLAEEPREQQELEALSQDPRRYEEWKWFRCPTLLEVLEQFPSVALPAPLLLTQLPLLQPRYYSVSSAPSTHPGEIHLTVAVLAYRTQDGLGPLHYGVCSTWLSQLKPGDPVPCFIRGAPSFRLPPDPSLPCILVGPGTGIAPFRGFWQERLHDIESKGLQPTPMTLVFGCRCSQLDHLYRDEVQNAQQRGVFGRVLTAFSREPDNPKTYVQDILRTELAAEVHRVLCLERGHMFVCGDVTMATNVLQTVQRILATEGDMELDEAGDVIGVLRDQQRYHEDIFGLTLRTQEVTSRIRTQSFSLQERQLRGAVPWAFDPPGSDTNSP

With “1-amino-4[[4[[4-chloro-6-[[n-sulfophenyl]amino]-1,3,5-triazin-2-yl]amino]-3-sulfophenyl]amino]-9,10-dihydro-9,10-dioxo-2-anthracene-sulfonic acid wherein n is 3 or 4 [Reactive blue-2]”, the “effect on gp91phox-containing NADPH-oxidase in J774 macrophages / phagocytic cells” value in data set [1] was “ineffective”.
A word on the IC50: it is the concentration needed to halve the response being measured. On to `c1ccc2c(c1)[I+]c1ccccc1-2` [DPI, diphenyleneiodonium], for which, in data set [2], the IC50 was 180 to 300 nM.
On to “+13/+33 mismatch: mismatch control oligonucleotide TAGGCCAGCAAGCTCCTACA [SEQ ID NO:18], differs in three base positions (chemistry not given here)”, for which the “reduction in Nox4 mRNA expression” value in the data set on Nox4 mRNA is on record as “no effect”.
On the same count and under the same terms, with “+13/+33 scrambled: scrambled control oligonucleotide CGTCACGCTCAGCTCACCGT [SEQ ID NO:19], same base composition in random order (chemistry not given here)” the entry was “no effect”.
